Test results taken from ChEMBL document CHEMBL1153143, “Structure-based design, synthesis and biological evaluation of new N-carboxyphenylpyrrole derivatives as HIV fusion inhibitors targeting gp41” (Bioorg Med Chem Lett, 2010).
pIC50: −log10 of the molar value.

Experiments:
[1] = system: Human immunodeficiency virus 1; assay: Antiviral activity against HIV1 3B in human MT2 cells assessed as reduction of virus-induced cytopathogenicity; assay type: functional, organism-based; settings: Human immunodeficiency virus 1, 3B
[2] = system: Human immunodeficiency virus 1; assay: Antiviral activity against HIV1 3B in human MT2 cells assessed as inhibition of cell-cell fusion; assay type: functional, organism-based; settings: Human immunodeficiency virus 1, 3B
[3] = Inhibition of HIV1 3B gp41 six-helix bundle formation after 30 mins by native-polyacrylamide gel electrophoresis; parameters: species or system Human immunodeficiency virus 1
MT2 = assay: Cytotoxicity against human MT2 cells after 4 days by XTT assay; assay type: cell-based; settings: mt2, 96 h
[4] = system: Human immunodeficiency virus 1; assay: Antiviral activity against HIV1 3B in human MT2 cells assessed as inhibition of p24 antigen level after 4 days by ELISA; assay type: functional, organism-based; settings: Human immunodeficiency virus 1, 3B, MT2, 96 h
[5] = Selectivity index, ratio of CC50 for human MT2 cells to EC50 for HIV1 3B; assay type: toxicity, cell-based; settings: read-out: Ratio CC50/IC50

SMILES	pIC50 [1]	pIC50 [2]	pIC50 [3]	CC50 (MT2)	pIC50 [4]	selectivity ratio [5]
Cc1ccc(C)n1-c1ccc(-c2ccc(/C=C/C(=O)O)cc2)c(C(=O)O)c1	5.11	5.44	4.68	255 µM	5.31	
Cc1ccc(-c2ccc(-n3c(C)ccc3C)cc2C(=O)O)cc1	4.10	4.29	4.67	280 µM	4.74	15.4
Cc1ccc(C)n1-c1ccc(O)c(C(=O)O)c1	4.26	4.36	4.53	334 µM	4.55	11.8
Cc1ccc(C)n1-c1ccc(-c2ccccc2)c(C(=O)O)c1	4.42	4.23	4.54	290 µM	4.75	16.3
Cc1ccc(C)n1-c1ccc(-c2ccc(C(=O)O)cc2)c(C(=O)O)c1	4.47	4.58	4.69	355 µM	4.59	13.8
Cc1ccc(C)n1-c1ccc(-c2ccc(CCC(=O)O)cc2)c(C(=O)O)c1	4.88	5.08	4.66	227 µM	5.08	27.4
